Measured values published in US11254700B2, “GSK-3β inhibitors and use thereof in methods of treatment” (UNIVERSITY OF HAWAII, priority 2017, dated 2022).

Test system: not listed separately
Experiment: in vitro
Conditions: PAMPA, 5 h, 20 μM, pH 7.4
Protocol: Samples were run in quadruplicate.
Oral administration is noninvasive and is preferred for chronical diseases such as Alzheimer's disease and other CNS disorders. […] In the PAMPA model, the amount of target compounds diffused from a donor compartment to an acceptor compartment through a tri-layer phospholipid pre-coated membrane are measured to assess oral-absorption potential of drug candidates. In the present study, 1, 4, 9, 17, 21 and 30 were evaluated with the PAMPA assay.

Row | Structure (SMILES) | Pe | R (percent recovery) [%]
1 | O=c1cc(-c2ccc(O)c(O)c2)oc2cc(O)cc(O)c12 [Compound 4, luteolin, reference compound] | 1.42 ± 0.07 ×10^−6 cm/s | 43
2 | CNCCCN1c2ccccc2CCc2ccccc21 [Desipramine, reference compound] | 13.43 ± 0.91 ×10^−6 cm/s | 96

Same assay, conditions: PAMPA, pH 7.4

Row | Structure (SMILES) | Papp at 5 h, 20 µM [×10⁻⁶ cm/s]
3 | O=c1cc(-c2ccc(O)c(O)c2)oc2cc(O)cc(O)c12 [Compound 4, luteolin, reference compound] | 1 to 1.5

Target: GSK-3β (Homo sapiens, UniProt P49841)
Experiment: Kinase luminescent assay (ADP-Glo), GSK-3β inhibition
Format: biochemical
Conditions: 25 μM ATP, 1 hour, room temperature; mean of quadruplicate of two experiments; read-out: IC50 against GSK-3β
Protocol: Kinase Luminescent Assay.
Kinase inhibition was assessed with the ADP-Glo Kinase Assay. […] The reaction mixture was incubated for 1 hour at room temperature followed by the addition of the ADP-Glo′ reagents according to the manufacturer's protocol. The kinase inhibitor staurosporine was used at 1 μM as a reference control. Each data point was collected in quadruplicate of two independent experiments.

Sequence of GSK-3β (P49841 whole entry): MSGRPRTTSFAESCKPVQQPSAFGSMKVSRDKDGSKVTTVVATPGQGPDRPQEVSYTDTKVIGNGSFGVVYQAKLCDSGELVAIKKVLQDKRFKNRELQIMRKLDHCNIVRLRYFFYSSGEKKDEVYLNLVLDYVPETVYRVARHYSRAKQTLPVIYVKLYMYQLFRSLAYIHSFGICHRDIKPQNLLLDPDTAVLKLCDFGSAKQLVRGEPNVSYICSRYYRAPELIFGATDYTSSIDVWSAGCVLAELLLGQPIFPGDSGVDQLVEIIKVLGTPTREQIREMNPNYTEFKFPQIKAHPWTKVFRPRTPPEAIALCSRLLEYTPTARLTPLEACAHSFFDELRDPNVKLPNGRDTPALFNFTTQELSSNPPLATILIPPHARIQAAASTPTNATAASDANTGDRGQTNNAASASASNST

Row | Structure (SMILES) | IC50 [µM]
4 | O=c1cc(-c2ccc(O)c(O)c2)oc2c([C@@H]3O[C@H](CO)[C@@H](O)[C@H](O)[C@H]3O)c(O)cc(O)c12 [Compound 3, orientin, reference compound] | 5153 ± 31
5 | O=c1cc(-c2ccc(O)c(O)c2)oc2cc(O)cc(O)c12 [Compound 4, luteolin, reference compound] | 3.1
6 | COc1ccc(-c2cc(=O)c3c(OC)c([C@@H]4O[C@H](CO)[C@@H](O)[C@H](O)[C@H]4O)c(OC)cc3o2)cc1OC [Compound 5, 2-(3,4-Dimethoxyphenyl)-5,7-dimethoxy-6-((2S,3R,4R,5S,6R)-3,4,5-trihydroxy-6-(hydroxymethyl)tetrahydro-2H-pyran-2-yl)-4H-chromen-4-one] | 239.2 ± 1.2
7 | COc1ccc(-c2cc(=O)c3c(OC)c([C@@H]4O[C@H](C(=O)O)[C@@H](O)[C@H](O)[C@H]4O)c(OC)cc3o2)cc1OC [Compound 6, (2S,3S,4R,5R,6S)-6-(2-(3,4-Dimethoxyphenyl)-5,7-dimethoxy-4-oxo-4H-chromen-6-yl)-3,4,5-trihydroxytetrahydro-2H-pyran-2-carboxylic acid] | 237.3 ± 1.4
8 | COC(=O)[C@H]1O[C@@H](c2c(OC)cc3oc(-c4ccc(OC)c(OC)c4)cc(=O)c3c2OC)[C@H](O)[C@@H](O)[C@@H]1O [Compound 7, Methyl (2S,3S,4R,5R,6S)-6-(2-(3,4-dimethoxyphenyl)-5,7-dimethoxy-4-oxo-4H-chromen-6-yl)-3,4,5-trihydroxytetrahydro-2H-pyran-2-carboxylate] | 135
9 | CCCCNC(=O)[C@H]1O[C@@H](c2c(OC)cc3oc(-c4ccc(OC)c(OC)c4)cc(=O)c3c2OC)[C@H](O)[C@@H](O)[C@@H]1O [Compound 10, (2S,3S,4R,5R,6S)-6-(2-(3,4-Dimethoxyphenyl)-5,7-dimethoxy-4-oxo-4H-chromen-6-yl)-3,4,5-trihydroxy-N-butyltetrahydro-2H-pyran-2-carboxamide] | 33.3 ± 1.1
10 | COc1ccc(-c2cc(=O)c3c(OC)c([C@@H]4O[C@H](C(=O)NC5CCC5)[C@@H](O)[C@H](O)[C@H]4O)c(OC)cc3o2)cc1OC [Compound 15, (2S,3S,4R,5R,6S)—N-Cyclobutyl-6-(2-(3,4-dimethoxyphenyl)-5,7-dimethoxy-4-oxo-4H-chromen-6-yl)-3,4,5-trihydroxytetrahydro-2H-pyran-2-carboxamide] | 61.9 ± 1.9
11 | COc1ccc(-c2cc(=O)c3c(OC)c([C@@H]4O[C@H](C(=O)NC5CCCC5)[C@@H](O)[C@H](O)[C@H]4O)c(OC)cc3o2)cc1OC [Compound 16, (2S,3S,4R,5R,6S)—N-Cyclopentyl-6-(2-(3,4-dimethoxyphenyl)-5,7-dimethoxy-4-oxo-4H-chromen-6-yl)-3,4,5-trihydroxytetrahydro-2H-pyran-2-carboxamide] | 13.1 ± 1.1
12 | COc1ccc(-c2cc(=O)c3c(OC)c([C@@H]4O[C@H](C(=O)NC56CC7CC(CC(C7)C5)C6)[C@@H](O)[C@H](O)[C@H]4O)c(OC)cc3o2)cc1OC [Compound 19, (2S,3S,4R,5R,6S)—N-(Adamantan-1-yl)-6-(2-(3,4-dimethoxyphenyl)-5,7-dimethoxy-4-oxo-4H-chromen-6-yl)-3,4,5-trihydroxytetrahydro-2H-pyran-2-carboxamide] | 33.5 ± 0.8
13 | COc1ccc(-c2cc(=O)c3c(OC)c([C@@H]4O[C@H](C(=O)Nc5nccs5)[C@@H](O)[C@H](O)[C@H]4O)c(OC)cc3o2)cc1OC [Compound 23, (2S,3S,4R,5R,6S)-6-(2-(3,4-Dimethoxyphenyl)-5,7-dimethoxy-4-oxo-4H-chromen-6-yl)-3,4,5-trihydroxy-N-(thiazol-2-yl)tetrahydro-2H-pyran-2-carboxamide] | 35.1 ± 1
14 | COc1ccc(-c2cc(=O)c3c(OC)c([C@@H]4O[C@H](C(=O)NCCF)[C@@H](O)[C@H](O)[C@H]4O)c(OC)cc3o2)cc1OC [Compound 26, (2S,3S,4R,5R,6S)-6-(2-(3,4-Dimethoxyphenyl)-5,7-dimethoxy-4-oxo-4H-chromen-6-yl)-3,4,5-trihydroxy-N-(2-fluoroethyl)tetrahydro-2H-pyran-2-carboxamide] | 34.8 ± 1

Now from value to molecule:

Row | IC50 [µM] | Structure (SMILES)
15 | 29.2 ± 1.1 | CCCNC(=O)[C@H]1O[C@@H](c2c(OC)cc3oc(-c4ccc(OC)c(OC)c4)cc(=O)c3c2OC)[C@H](O)[C@@H](O)[C@@H]1O [Compound 8, (2S,3S,4R,5R,6S)-6-(2-(3,4-Dimethoxyphenyl)-5,7-dimethoxy-4-oxo-4H-chromen-6-yl)-3,4,5-trihydroxy-N-propyltetrahydro-2H-pyran-2-carboxamide]
16 | 31.1 ± 1.2 | COc1ccc(-c2cc(=O)c3c(OC)c([C@@H]4O[C@H](C(=O)NCC(C)C)[C@@H](O)[C@H](O)[C@H]4O)c(OC)cc3o2)cc1OC [Compound 11, (2S,3S,4R,5R,6S)-6-(2-(3,4-Dimethoxyphenyl)-5,7-dimethoxy-4-oxo-4H-chromen-6-yl)-3,4,5-trihydroxy-N-isobutyltetrahydro-2H-pyran-2-carboxamide]
17 | 28 ± 1.1 | CCCCCNC(=O)[C@H]1O[C@@H](c2c(OC)cc3oc(-c4ccc(OC)c(OC)c4)cc(=O)c3c2OC)[C@H](O)[C@@H](O)[C@@H]1O [Compound 12, (2S,3S,4R,5R,6S)-6-(2-(3,4-Dimethoxyphenyl)-5,7-dimethoxy-4-oxo-4H-chromen-6-yl)-3,4,5-trihydroxy-N-pentyltetrahydro-2H-pyran-2-carboxamide]
18 | 9.4 ± 0.9 | CCCCCCNC(=O)[C@H]1O[C@@H](c2c(OC)cc3oc(-c4ccc(OC)c(OC)c4)cc(=O)c3c2OC)[C@H](O)[C@@H](O)[C@@H]1O [Compound 13, (2S,3S,4R,5R,6S)-6-(2-(3,4-Dimethoxyphenyl)-5,7-dimethoxy-4-oxo-4H-chromen-6-yl)-3,4,5-trihydroxy-N-hexyltetrahydro-2H-pyran-2-carboxamide]
19 | 25.8 ± 1.1 | COc1ccc(-c2cc(=O)c3c(OC)c([C@@H]4O[C@H](C(=O)NC5CC5)[C@@H](O)[C@H](O)[C@H]4O)c(OC)cc3o2)cc1OC [Compound 14, (2S,3S,4R,5R,6S)—N-Cyclopropyl-6-(2-(3,4-dimethoxyphenyl)-5,7-dimethoxy-4-oxo-4H-chromen-6-yl)-3,4,5-trihydroxytetrahydro-2H-pyran-2-carboxamide]
20 | 26 ± 1.2 | COc1ccc(-c2cc(=O)c3c(OC)c([C@@H]4O[C@H](C(=O)NCC5CCCCC5)[C@@H](O)[C@H](O)[C@H]4O)c(OC)cc3o2)cc1OC [Compound 18, (2S,3S,4R,5R,6S)—N-(Cyclohexylmethyl)-6-(2-(3,4-dimethoxyphenyl)-5,7-dimethoxy-4-oxo-4H-chromen-6-yl)-3,4,5-trihydroxytetrahydro-2H-pyran-2-carboxamide]
21 | 19.7 ± 1.1 | COc1ccc(-c2cc(=O)c3c(OC)c([C@@H]4O[C@H](C(=O)Nc5ccccc5)[C@@H](O)[C@H](O)[C@H]4O)c(OC)cc3o2)cc1OC [Compound 20, (2S,3S,4R,5R,6S)-6-(2-(3,4-Dimethoxyphenyl)-5,7-dimethoxy-4-oxo-4H-chromen-6-yl)-3,4,5-trihydroxy-N-phenyltetrahydro-2H-pyran-2-carboxamide]
22 | < 20 | COc1ccc(-c2cc(=O)c3c(OC)c([C@@H]4O[C@H](C(=O)N[C@H](C)C(F)(F)F)[C@@H](O)[C@H](O)[C@H]4O)c(OC)cc3o2)cc1OC [Compound 31, (2S,3S,4R,5R,6S)-6-(2-(3,4-Dimethoxyphenyl)-5,7-dimethoxy-4-oxo-4H-chromen-6-yl)-3,4,5-trihydroxy-N—((R)-1,1,1-trifluoropropan-2-yl) tetrahydro-2H-pyran-2-carboxamide]

Same assay, conditions: vs isoorientin 1

Row | increase of potency against GSK-3β relative to 1 [fold] | Structure (SMILES)
23 | 1.37 | COC(=O)[C@H]1O[C@@H](c2c(OC)cc3oc(-c4ccc(OC)c(OC)c4)cc(=O)c3c2OC)[C@H](O)[C@@H](O)[C@@H]1O [Compound 7, Methyl (2S,3S,4R,5R,6S)-6-(2-(3,4-dimethoxyphenyl)-5,7-dimethoxy-4-oxo-4H-chromen-6-yl)-3,4,5-trihydroxytetrahydro-2H-pyran-2-carboxylate]
